Where two headings read alike, the source gives them in different places.
Experiments:
[1] = target: T1, recombinant human tau Tau-441(A152T) (Homo sapiens, UniProt P10636, A469T); assay: Bio-layer interferometry (BLI) biosensor assay, tau A152T; format: binding
T1 construct: biotin (chemical label, NHS-PEG4); purchased SignalChem T08-56VN; host or cells: E. coli
Experimental: BLI was performed in the Octet Red384 instrument (ForteBio, Fremont CA, USA) with 1X PBS and 0.01% Brij-35 as the assay buffer. […] The biotinylated protein samples for BLI were purified in 1X phosphate buffered saline (PBS). Streptavidin (SA) sensors were used to measure the biophysical interaction between the small molecules and biotinylated tau. Prior to the initiation of BLI, the SA sensors were soaked by dipping in 200 μL of assay buffer in a 96-well Greiner Bio-One Black flat bottom plate (Greiner, Monroe NC, USA Cat.655209). The assay was performed in 80 μL volume in Greiner Bio-One 384-well black flat bottom PP plates (Greiner, Cat.781209) with an initial baseline step, followed by loading of 250 nM biotinylated tau protein. The small molecules samples and recombinant proteins were arranged in the 384-well plate according to a plate map recommended for the eight-channel mode kinetic analysis, where the sensors move from low to high concentration of small molecule samples. Subsequent steps included a second baseline (120 s), followed by association (240 s) and dissociation (240 s) cycles. […] Data analysis was performed using Data Acquisition HT 11.0 software following reference subtraction (an average of two sensors with DMSO) using a 1:1 binding model and an individual fit of each replicate. The equilibrium dissociation constant (KD) was estimated using data at equilibrium from each available small molecule concentration with steady-state analysis. The instrument manufacturer (Fortebio, article #137) recommends the steady state option for analyzing interactions that are either low affinity or very fast on-and-off affinity rates. […] When Req option is selected, Fortebio’s software calculates affinity constants based on the Req values determined from the curve fits. In the steady-state analysis, Req is plotted against the small molecule concentration to infer the Rmax. […] As per the instrument manufacturer’s instructions, if all curves have reached equilibrium, these two sets of values correspond to ‘Response,’ and Req values should match. […]

[2] = target: T2, total tau (TAU5) in control-1 8330–8-RC1 neurons (Homo sapiens, UniProt P10636); assay: Western blot of total tau in control line 1 neurons; format: cell-based; conditions: control line 1, western blot, 1 μM, 24 hr
T2 construct: modeling pathogenic tau species without the need for overexpression of heterologous genes; endogenous in cells; host or cells: 8330-8-RC1, MGH2069-RC1, CTR2-L17-RC2 human iPSC-derived neurons
T2 sequence (P10636 1-441 isoform P10636-8): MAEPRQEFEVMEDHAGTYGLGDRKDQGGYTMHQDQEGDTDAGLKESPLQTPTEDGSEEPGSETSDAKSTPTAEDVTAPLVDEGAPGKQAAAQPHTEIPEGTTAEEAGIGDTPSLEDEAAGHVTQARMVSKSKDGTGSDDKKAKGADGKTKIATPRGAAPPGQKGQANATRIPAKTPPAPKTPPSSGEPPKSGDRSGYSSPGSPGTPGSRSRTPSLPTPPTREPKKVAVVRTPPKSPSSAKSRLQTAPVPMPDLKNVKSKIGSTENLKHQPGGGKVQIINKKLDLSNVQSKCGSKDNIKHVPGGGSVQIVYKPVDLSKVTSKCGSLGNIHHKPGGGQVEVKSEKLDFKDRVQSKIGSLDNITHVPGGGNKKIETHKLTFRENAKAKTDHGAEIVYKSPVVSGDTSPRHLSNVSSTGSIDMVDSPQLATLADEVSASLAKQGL
Description: Cells from individuals carrying the tau risk variant A152T (c.1407G > A; NCBI RefSeq NM_001123066, rs143624519), the autosomal dominant mutation P301L (c.C1907T; NCBI NM_001123066, rs63751273), or age-matched non-mutant WT tau were employed in this study (Figure 2—source data 1). Dermal fibroblasts from the tau-P301L carrier and the healthy individual were generated from a skin biopsy from subjects within the MGH Frontotemporal Disorders Unit as part of the MGH Neurodegeneration Repository. Approval for human subjects’ work was obtained under a Partners/MGH-approved IRB Protocol (#2010P001611/MGH). […]
Neurons differentiated in six-well plates for 6 weeks were washed and collected in PBS, lysed in RIPA buffer (Boston Bio-Products, Boston, MA) supplemented with 2% SDS (Sigma), protease inhibitors cocktail (Roche Complete Mini tablets, Mannheim, Germany), and phosphatase inhibitors cocktail (Sigma), followed by water sonication (Bransonic Ultrasonic Baths, Thomas Scientific, Danbury, CT) and 20,000 g centrifugation for 20 min. Supernatants were transferred to new tubes and total protein concentration was quantified with the Pierce BCA Protein Assay Kit (ThermoFisher Scientific, Carlsbad, CA). […]

T1 sequence (P10636 1-441 isoform P10636-8 A152T): as the sequence (P10636 1-441 isoform P10636-8) above, with A152T counted along it

With `O=C(CCc1ccc2c(c1)[nH]c1ccncc12)NCCOCCOCCNc1cccc2c1C(=O)N(C1CCC(=O)NC1=O)C2=O` (stereo not drawn) [QC-01–175] the Kd ([1]; BLI steady-state analysis, immobilized biotinylated tau, Figure 1—figure supplement 1B, read-out: KD, Tau A152T) was 1.7 µM, the Kd ([1]; BLI, Figure 1E, mean (n ≥ 3), read-out: KD (μM), Tau A152T, bars mean KD) was 1.66 µM and the degradation of tau [2] was “unable to induce significant degradation”.
